“Also recorded” adds a separate entry of the source.
Assays:
Bacillus megaterium [1] = experiment: Antibiotic sensitivity screening test in petri dishes, minimum inhibitory concentration (MIC) method; format: cell-based; details: FIG. 27; for sensitivity of Bacillus megaterium / control of its growth in vitro: agar medium with antibiotic, 1*10^7 bacteria per culture, 37° C., 24 h
Experimental: The bacterial culture medium (HuanKai Microbial, Guangzhou, China) containing peptone 5 g, beef extract 3 g, NaCl 5 g, agar 15 g, and MnSO4 5 mg in 1 L ddH2O (pH=7.2) was prepared in conical flask (Drtech, Guangzhou, China) and was sterilized in the autoclave (HIRAYAMA, HEV-50, Japan) at 121° C. for 30 min. Antibiotics (ampicillin, vancomycin, neomycin, metronidazole, and tetracycline, purchased from Sigma, USA) at various concentrations were added into cooled medium. Bacillus megaterium (total 1*10^7 per culture) was cultured in the incubator (HettCube 200, Germany) at 37° C. for 24 h.
To test whether antibiotics can control the growth of Bacillus megaterium in vitro and in vivo, an antibiotic sensitivity screening test in petri dishes was carried out. The sensitivity of Bacillus megaterium to several major antimicrobial agents including Ampicillin, vancomycin, neomycin, metronidazole, and tetracycline were examined using the minimum inhibitory concentration (MIC) method.

Bacillus megaterium [2] = experiment: Bacillus megaterium subretinal inoculation model, bacteria-induced drusenoid pathology in monkey retinal tissues; format: in vivo; details: intravitreous 0.5 mg, one injection on Day 2 post bacterial inoculation, FIG. 28
Experimental: The macaques were sedated by intramuscular injection of a mixture of tiletamine hydrochloride (2.5 mg/kg) and xolazepam hydrochloride (2.5 mg/kg). After instilling topical anesthesia (0.5% proparacaine hydrochloride), the eyes were immediately visualized in vivo using a light microscope. The pupils were then dilated with 0.5% tropicamide and 0.5% phenylephrine to obtain the fundus photographs. Then a 35 gauge anterior chamber cannula was inserted through a sclerotomy and advanced through the vitreous. Under microscopic monitoring, […] of PBS (with or without bacteria) was injected into the subretinal space between photo receptors and RPE, using a NanoFil Syringe Nanofil-100 for Microinjection (World Precision Instruments, USA). All procedures were done using sterile instruments. The macaque was euthanized 47 days post inoculation and the eyeball was enucleated for histological analyses. The eyeballs were fixed in 4% paraformaldehyde for 48 h and then embedded in paraffin. Sections were cut on a microtome at 6 μm and stained with H&E.
(§1) Next, Bacillus megaterium subretinal inoculation model was used to test whether antibiotics might be able to change the bacteria-induced drusenoid pathology in monkey retinal tissues.

[3] = Intraocular administration in monkey, ocular complications; format: in vivo; details: data not shown
Description: as §1

CN[C@H](CC(C)C)C(=O)N[C@H]1C(=O)N[C@@H](CC(N)=O)C(=O)N[C@H]2C(=O)N[C@H]3C(=O)N[C@H](C(=O)N[C@H](C(=O)O)c4cc(O)cc(O)c4-c4cc3ccc4O)[C@H](O)c3ccc(c(Cl)c3)Oc3cc2cc(c3O[C@@H]2O[C@H](CO)[C@@H](O)[C@H](O)[C@H]2O[C@H]2C[C@](C)(N)[C@H](O)[C@H](C)O2)Oc2ccc(cc2Cl)[C@H]1O [vancomycin]
sensitivity of Bacillus megaterium / control of its growth in vitro (Bacillus megaterium [1]): able to inhibit the growth | size of drusenoid lesion in retinal tissue (Bacillus megaterium [2]): reduction in the size of drusenoid lesion

neomycin
ocular complications [3]: significant ocular complications including ophthalmatrophia | sensitivity of Bacillus megaterium / control of its growth in vitro (Bacillus megaterium [1]): most sensitive; also recorded: best in vitro activity

Cc1ncc([N+](=O)[O-])n1CCO [metronidazole]
fold less effective in controlling the growth of Bacillus megaterium (Bacillus megaterium [1]; compared with neomycin): 10000 fold

Source: US11746370B2, “Methods and compositions for assessing and treating intraocular diseases and disorders” (SMILEBIOTEK ZHUHAI LIMITED, priority 2017, dated 2023)
